Results reported in ChEMBL document CHEMBL1152345, “Clavatadines C-E, guanidine alkaloids from the Australian sponge Suberea clavata” (J Nat Prod, 2009).

Assays:
[1] = target: Coagulation factor XI (Homo sapiens) (UniProt P03951); assay: Inhibition of factor 11a at 222 uM after 10 min
[2] = target: Coagulation factor IX (Homo sapiens) (UniProt P00740); assay: Inhibition of factor 9a at 222 uM after 10 min
Sequence of Coagulation factor IX (Homo sapiens) (P00740 47-191 limits assumed): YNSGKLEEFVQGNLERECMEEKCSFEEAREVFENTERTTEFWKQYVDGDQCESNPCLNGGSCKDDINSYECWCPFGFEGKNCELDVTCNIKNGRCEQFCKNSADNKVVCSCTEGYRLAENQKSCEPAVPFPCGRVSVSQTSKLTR
Sequence of Coagulation factor IX (Homo sapiens) (P00740 227-461 limits assumed): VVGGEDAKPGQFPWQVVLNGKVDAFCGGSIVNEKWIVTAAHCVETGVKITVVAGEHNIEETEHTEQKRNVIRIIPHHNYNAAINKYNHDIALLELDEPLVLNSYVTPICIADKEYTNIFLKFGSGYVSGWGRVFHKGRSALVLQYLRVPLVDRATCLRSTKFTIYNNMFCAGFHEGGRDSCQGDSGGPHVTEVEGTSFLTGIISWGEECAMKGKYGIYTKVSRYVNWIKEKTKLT

Sequence of Coagulation factor XI (Homo sapiens) (P03951 19-387 limits assumed): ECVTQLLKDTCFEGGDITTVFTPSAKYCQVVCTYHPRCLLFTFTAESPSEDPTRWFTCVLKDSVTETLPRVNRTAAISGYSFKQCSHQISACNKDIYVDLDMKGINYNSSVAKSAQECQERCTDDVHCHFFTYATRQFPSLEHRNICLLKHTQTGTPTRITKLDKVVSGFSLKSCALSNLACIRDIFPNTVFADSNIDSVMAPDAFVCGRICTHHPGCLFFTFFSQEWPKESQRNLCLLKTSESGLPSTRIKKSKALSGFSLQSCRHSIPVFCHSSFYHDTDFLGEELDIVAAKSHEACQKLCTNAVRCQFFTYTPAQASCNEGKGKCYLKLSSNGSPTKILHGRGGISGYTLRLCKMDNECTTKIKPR
Sequence of Coagulation factor XI (Homo sapiens) (P03951 388-625 limits assumed): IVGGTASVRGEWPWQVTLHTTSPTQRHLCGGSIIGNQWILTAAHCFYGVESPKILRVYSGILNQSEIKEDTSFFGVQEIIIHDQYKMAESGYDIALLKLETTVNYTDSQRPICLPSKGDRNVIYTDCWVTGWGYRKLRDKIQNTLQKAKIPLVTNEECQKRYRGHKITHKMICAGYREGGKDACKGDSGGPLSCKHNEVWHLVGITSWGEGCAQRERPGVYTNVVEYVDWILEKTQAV

SMILES	inhibition [1] [%]	inhibition [2] [%]
N=C(N)NCCCCNC(=O)/C(Cc1ccc(O)c(Br)c1)=N/O	37	< 5
COC1=C(Br)[C@H](O)[C@@]2(C=C1Br)CC(C(=O)NCCCCNC(=N)N)=NO2	12	< 5
COC1=C(Br)[C@@H](O)[C@]2(C=C1Br)CC(C(=O)NCCc1cnc[nH]1)=NO2	59	< 5
COC1=C(Br)[C@H](O)[C@@]2(C=C1Br)CC(C(=O)NCCCCCNC(=N)N)=NO2	30	< 5

Further lines, results first:

inhibition [1] [%]	inhibition [2] [%]	SMILES
17	< 5	N=C(N)NCCCCNC(=O)C1=NOC2(C=C(Br)C(=O)C(Br)=C2)C1
30	< 5	N=C(N)NCCCCCNC(=O)C1=NOC2(C=C(Br)C(=O)C(Br)=C2)C1
